Experimental data published in PMC11277489, “Novel Piperazine Derivatives of Vindoline as Anticancer Agents” (International Journal of Molecular Sciences, 2024).

What was measured:
SNB-19 = test: NCI60 one-dose screen (10 μM), CNS Cancer; assay type: cell-based; settings: Homo sapiens; 10 μM; SNB-19, CNS Cancer; read-out: Growth percent rate
UACC-62 = test: NCI60 one-dose screen (10 μM), Melanoma; assay type: cell-based; settings: Homo sapiens; 10 μM; UACC-62, Melanoma; read-out: Growth percent rate
HCC-2998 [1] = test: NCI60 one-dose screen (10 μM), Colon Cancer; assay type: cell-based; settings: Homo sapiens; 10 μM; HCC-2998, Colon Cancer; read-out: Growth percent rate
NCI-H226 = test: NCI60 one-dose screen (10 μM), Non-small Cell Lung Cancer; assay type: cell-based; settings: Homo sapiens; 10 μM; NCI-H226, Non-small Cell Lung Cancer; read-out: Growth percent rate
NCI/ADR-RES [2] = test: NCI60 one-dose screen (10 μM), Ovarian Cancer; assay type: cell-based; settings: Homo sapiens, 10 μM, Ovarian Cancer, read-out: Growth percent rate
SK-MEL-5 [3] = test: NCI60 one-dose screen (10 μM), Melanoma; assay type: cell-based, human; settings: Homo sapiens; 10 μM; SK-MEL-5, Melanoma; read-out: Growth percent rate
BT-549 [4] = test: NCI60 one-dose screen (10 μM), Breast Cancer; assay type: cell-based; settings: Homo sapiens; 10 μM; BT-549, Breast Cancer; read-out: Growth percent rate
HT29 = test: NCI60 one-dose screen (10 μM), Colon Cancer; assay type: cell-based; settings: Homo sapiens, HT-29; 10 μM; HT29, Colon Cancer; read-out: Growth percent rate
MDA-MB-231/ATCC = test: NCI60 one-dose screen (10 μM), Breast Cancer; assay type: cell-based, human; settings: Homo sapiens; 10 μM; MDA-MB-231/ATCC, Breast Cancer; read-out: Growth percent rate
SK-OV-3 = test: NCI60 one-dose screen (10 μM), Ovarian Cancer; assay type: cell-based; settings: Homo sapiens; 10 μM; SK-OV-3, Ovarian Cancer; read-out: Growth percent rate
UO-31 = test: NCI60 one-dose screen (10 μM), Renal Cancer; assay type: cell-based; settings: Homo sapiens; 10 μM; UO-31, Renal Cancer; read-out: Growth percent rate
OVCAR-5 [5] = test: NCI60 one-dose screen (10 μM), Ovarian Cancer; assay type: cell-based; settings: Homo sapiens; 10 μM; OVCAR-5, Ovarian Cancer; read-out: Growth percent rate
DU-145 = test: NCI60 one-dose screen (10 μM), Prostate Cancer; assay type: cell-based; settings: Homo sapiens; 10 μM; DU-145, Prostate Cancer; read-out: Growth percent rate
MDA-MB-468 [6] = test: NCI60 one-dose screen (10 μM), Breast Cancer; assay type: cell-based; settings: Homo sapiens; 10 μM; MDA-MB-468, Breast Cancer; read-out: Growth percent rate
T-47D [7] = test: NCI60 one-dose screen (10 μM), Breast Cancer; assay type: cell-based; settings: Homo sapiens, T47D; 10 μM; T-47D, Breast Cancer; read-out: Growth percent rate
HOP-92 = test: NCI60 one-dose screen (10 μM), Non-small Cell Lung Cancer; assay type: cell-based; settings: Homo sapiens; 10 μM; HOP-92, Non-small Cell Lung Cancer; read-out: Growth percent rate
PC-3 [8] = test: NCI60 one-dose screen (10 μM), Prostate Cancer; assay type: cell-based; settings: Homo sapiens; 10 μM; PC-3, Prostate Cancer; read-out: Growth percent rate
M14 [9] = test: NCI60 one-dose screen (10 μM), Melanoma; assay type: cell-based; settings: Homo sapiens; 10 μM; M14, Melanoma; read-out: Growth percent rate
SR [10] = test: NCI60 one-dose screen (10 μM), Leukemia; assay type: cell-based; settings: Homo sapiens, 10 μM, Leukemia, read-out: Growth percent rate
SR [11] = test: NCI60 five-dose screen, Leukemia; assay type: cell-based; settings: Homo sapiens, Leukemia, five-dose screen, read-out: GI50
NCI-H460 = test: NCI60 five-dose screen, Non-small Cell Lung Cancer; assay type: cell-based; settings: Homo sapiens; NCI-H460, Non-small Cell Lung Cancer; five-dose screen; read-out: GI50
MDA-MB231ATCC = test: NCI60 five-dose screen, Breast Cancer; assay type: cell-based; settings: Homo sapiens, MDA-MB-231; MDA-MB231ATCC, Breast Cancer; five-dose screen; read-out: GI50
OVCAR-3 = test: NCI60 five-dose screen, Ovarian Cancer; assay type: cell-based; settings: Homo sapiens; OVCAR-3, Ovarian Cancer; five-dose screen; read-out: GI50
A549/ATCC = test: NCI60 five-dose screen, Non-small Cell Lung Cancer; assay type: cell-based; settings: Homo sapiens; A549/ATCC, Non-small Cell Lung Cancer; five-dose screen; read-out: GI50
U251 = test: NCI60 five-dose screen, CNS Cancer; assay type: cell-based; settings: Homo sapiens, U-251; U251, CNS Cancer; five-dose screen; read-out: GI50
K-562 = test: NCI60 five-dose screen, Leukemia; assay type: cell-based; settings: Homo sapiens, K562; K-562, Leukemia; five-dose screen; read-out: GI50
IGROV1 = test: NCI60 five-dose screen, Ovarian Cancer; assay type: cell-based; settings: Homo sapiens, IGROV-1; IGROV1, Ovarian Cancer; five-dose screen; read-out: GI50
HCC-2998 [12] = test: NCI60 five-dose screen, Colon Cancer; assay type: cell-based; settings: Homo sapiens; HCC-2998, Colon Cancer; five-dose screen; read-out: GI50
SK-MEL-5 [13] = test: NCI60 five-dose screen, Melanoma; assay type: cell-based; settings: Homo sapiens; SK-MEL-5, Melanoma; five-dose screen; read-out: GI50
HS 578T = test: NCI60 five-dose screen, Breast Cancer; assay type: cell-based; settings: Homo sapiens; HS 578T, Breast Cancer; five-dose screen; read-out: GI50
HCT-15 = test: NCI60 five-dose screen, Colon Cancer; assay type: cell-based; settings: Homo sapiens; HCT-15, Colon Cancer; five-dose screen; read-out: GI50
OVCAR-4 = test: NCI60 five-dose screen, Ovarian Cancer; assay type: cell-based; settings: Homo sapiens; OVCAR-4, Ovarian Cancer; five-dose screen; read-out: GI50
PC-3 [14] = test: NCI60 five-dose screen, Prostate Cancer; assay type: cell-based; settings: Homo sapiens; PC-3, Prostate Cancer; five-dose screen; read-out: GI50
NCI/ADR-RES [15] = test: NCI60 five-dose screen, Ovarian Cancer; assay type: cell-based; settings: Homo sapiens, Ovarian Cancer, five-dose screen, read-out: GI50
HL-60(TB) = test: NCI60 five-dose screen, Leukemia; assay type: cell-based; settings: Homo sapiens; HL-60(TB), Leukemia; five-dose screen; read-out: GI50
MDA-MB-468 [16] = test: NCI60 five-dose screen, Breast Cancer; assay type: cell-based; settings: Homo sapiens; MDA-MB-468, Breast Cancer; five-dose screen; read-out: GI50
LOX IMVI = test: NCI60 five-dose screen, Melanoma; assay type: cell-based; settings: Homo sapiens, Melanoma, five-dose screen, read-out: GI50
ACHN = test: NCI60 five-dose screen, Renal Cancer; assay type: cell-based; settings: Homo sapiens, Renal Cancer, five-dose screen, read-out: GI50
SF-268 = test: NCI60 five-dose screen, CNS Cancer; assay type: cell-based; settings: Homo sapiens; SF-268, CNS Cancer; five-dose screen; read-out: GI50
T-47D [17] = test: NCI60 five-dose screen, Breast Cancer; assay type: cell-based; settings: Homo sapiens, T47D; T-47D, Breast Cancer; five-dose screen; read-out: GI50
TK-10 = test: NCI60 five-dose screen, Renal Cancer; assay type: cell-based; settings: Homo sapiens; TK-10, Renal Cancer; five-dose screen; read-out: GI50
OVCAR-5 [18] = test: NCI60 five-dose screen, Ovarian Cancer; assay type: cell-based; settings: Homo sapiens; OVCAR-5, Ovarian Cancer; five-dose screen; read-out: GI50
M14 [19] = test: NCI60 five-dose screen, Melanoma; assay type: cell-based; settings: Homo sapiens; M14, Melanoma; five-dose screen; read-out: GI50
SW-620 = test: NCI60 five-dose screen, Colon Cancer; assay type: cell-based; settings: Homo sapiens; SW-620, Colon Cancer; five-dose screen; read-out: GI50
MDA-MB-435 = test: NCI60 five-dose screen, Melanoma; assay type: cell-based; settings: Homo sapiens; MDA-MB-435, Melanoma; five-dose screen; read-out: GI50
BT-549 [20] = test: NCI60 five-dose screen, Breast Cancer; assay type: cell-based; settings: Homo sapiens; BT-549, Breast Cancer; five-dose screen; read-out: GI50

CC[C@]12C=CCN3CC[C@@]4(c5ccc(OC)cc5N(C)[C@H]4[C@@](O)(C(=O)OC)[C@@H]1OC(=O)CCC(=O)N1CCN(Cc4ccc(F)cc4)CC1)[C@@H]32 [Compound 30]
activity at 10 µM (SNB-19): 69.5%
activity at 10 µM (UACC-62): 67.1%
activity at 10 µM (HCC-2998 [1]): 85.3%
activity at 10 µM (NCI-H226): 69.9%
activity at 10 µM (NCI/ADR-RES [2]): 65.2%
activity at 10 µM (SK-MEL-5 [3]): 62.6%
activity at 10 µM (BT-549 [4]): 98.1%
activity at 10 µM (HT29): 60.5%
activity at 10 µM (MDA-MB-231/ATCC): 65.3%
activity at 10 µM (SK-OV-3): 103%
activity at 10 µM (UO-31): 62.3%
activity at 10 µM (OVCAR-5 [5]): 96.3%
activity at 10 µM (DU-145): 82.6%
activity at 10 µM (MDA-MB-468 [6]): 1.38%
activity at 10 µM (T-47D [7]): 73.8%
activity at 10 µM (HOP-92): 66.4%
activity at 10 µM (PC-3 [8]): 44.5%
activity at 10 µM (M14 [9]): 61%
activity at 10 µM (SR [10]): 56.4%

CC[C@]12C=CCN3CC[C@@]4(c5ccc(OC)cc5N(C)[C@H]4[C@@](O)(C(=O)OC)[C@@H]1OC(=O)CCCN1CCN(Cc4ccc(F)cc4)CC1)[C@@H]32 [Compound 24]
activity at 10 µM (SNB-19): 49.1%
GI50 (SR [11]): 3.47 µM
GI50 (NCI-H460): 8.51 µM
GI50 (MDA-MB231ATCC): 2.82 µM
GI50 (OVCAR-3): 10.7 µM
activity at 10 µM (UACC-62): 34.7%
GI50 (A549/ATCC): 10.2 µM
activity at 10 µM (HCC-2998 [1]): -62.4%
activity at 10 µM (NCI-H226): 50.2%
activity at 10 µM (NCI/ADR-RES [2]): 42%
GI50 (U251): 7.59 µM
GI50 (K-562): 2.4 µM
activity at 10 µM (SK-MEL-5 [3]): -98.3%
GI50 (IGROV1): 2.51 µM
GI50 (HCC-2998 [12]): 2.19 µM
GI50 (SK-MEL-5 [13]): 1.66 µM
GI50 (HS 578T): 4.07 µM
GI50 (HCT-15): 5.13 µM
GI50 (OVCAR-4): 5.37 µM
activity at 10 µM (BT-549 [4]): 16.3%
activity at 10 µM (HT29): 1.44%
GI50 (PC-3 [14]): 4.17 µM
activity at 10 µM (MDA-MB-231/ATCC): 51.5%
GI50 (NCI/ADR-RES [15]): 11.8 µM
activity at 10 µM (SK-OV-3): 70%
GI50 (HL-60(TB)): 3.31 µM
GI50 (MDA-MB-468 [16]): 1.74 µM
activity at 10 µM (UO-31): 20.7%
GI50 (LOX IMVI): 5.01 µM
activity at 10 µM (OVCAR-5 [5]): 81.2%
GI50 (ACHN): 5.89 µM
GI50 (SF-268): 5.25 µM
GI50 (T-47D [17]): 5.62 µM
GI50 (TK-10): 4.9 µM
GI50 (OVCAR-5 [18]): 13.8 µM
activity at 10 µM (DU-145): 39.5%
activity at 10 µM (T-47D [7]): 28.8%
activity at 10 µM (PC-3 [8]): 12.9%
activity at 10 µM (M14 [9]): -77.9%
GI50 (M14 [19]): 5.5 µM
activity at 10 µM (SR [10]): 4.82%
GI50 (SW-620): 13.5 µM
GI50 (MDA-MB-435): 5.5 µM
GI50 (BT-549 [20]): 7.24 µM
